Assay results taken from US11850266B2, “Cardiomyocytes and compositions and methods for producing the same” (President and Fellows of Harvard College, priority 2019, dated 2023).

Assays:
[1] = system: iPSC-derived cardiomyocytes; assay: Western analysis of protein expression in iPSC-derived cardiomyocytes; format: cell-based, human
Procedure: To prepare for differentiation, iPSCs were plated at a density between 20,000 to 80,000 cells (depending on the cell line) per well of a 12-well plate at four days prior to onset of differentiation. Cells were differentiated according to the protocol previously described by Lian et al. with some modifications (FIG. 1A) (1). Basal media was changed from StemFlex to RPMI/B27 on day 0 of differentiation. The GSK3 inhibitor, CHIR99021 (6 μM), was added for 48 hours from day 0 to day 2 of differentiation when cells were approximately 70-80% confluent. The Wnt antagonist IWP4 (5 μM) was added from days 2 to 4 of differentiation. Insulin (10 μg/ml) was added to the media starting on day 7 of differentiation, and media was changed every 2-3 days. In general, higher purity (TNNT2+) cardiomyocytes were observed when beating initiated prior to day 10 of differentiation, therefore only batches with onset of beating between days 7-10 of differentiation were included in this study. Beating cardiomyocytes were treated with Torin1 (200 nM, unless otherwise noted) or vehicle (0.02% dimethylsulfoxide (DMSO)) beginning at ˜2 days after onset of beating for 7 days (media changed with fresh Torin1 or DMSO every 2-3 days), unless otherwise noted. After Torin1 treatment, media was switched back to RPMI/B27/insulin and maintained with media change every 2-3 days until endpoint assay. In a few assays, fatty acids were added in the form of chemically defined lipids (Gibco) diluted 1:1000 simultaneous with Torin1 treatment. In some other assays, fetal bovine serum (10% FBS) was added to cells after completion of Torin treatment for 2-4 days.
Cells were lysed with lysis buffer (1% Triton X, 0.35% Na-deoxycholate, 1 mM EDTA, 1% protease inhibitor cocktail (Sigma), 1% phosphatase inhibitor cocktail 2 (Sigma), 1% phosphatase inhibitor cocktail 3 (Sigma), 1 mM phenylmethylsulfonyl fluoride (PMSF)) and total protein was measured with the Pierce BCA Protein Assay Kit. Samples with equal total protein quantities (prepared in Laemmli Sample Buffer (Bio-Rad)) were loaded into a Mini-Protean TGX Precast Gel (Bio-Rad) and electrophoresed for 1 hour at 100 V before transfer to a PVDF membrane using the Trans-Blot Turbo Transfer System (Bio-Rad). The Precision Plus Protein Dual Color Standards molecular weight ladder was used to estimate molecular weight of detected bands (Bio-Rad). Membranes were blocked with 5% milk or bovine serum albumin then incubated with the primary antibody (Table 2) overnight at 4 degrees C. followed by incubation with the horseradish peroxidase-conjugated secondary antibody (Table 2) for 1 hour at room temperature. The Amersham ECL Western Blotting Detection kit was used to detect the protein signal by chemiluminescence, and band densities were quantified using ImageJ software (NIH).

[2] = system: iPSC-derived cardiomyocytes; assay: Seahorse Mito Stress Test and Glycolysis Stress Test; format: cell-based, human
Procedure: The Seahorse XFe96 Analyzer (Agilent) was used to assess metabolic activity of differentiated cardiomyocytes. Seahorse XFe96 cell culture microplates were coated with Geltrex (1:100 dilution in DMEM:F12). Cardiomyocytes were differentiated as described above then treated with DMSO or Torin1 (200 nM) starting at approximately two days after onset of beating for one week (˜days 9-16 of differentiation for most batches). After treatment, all cells were changed back into RPMI/B27/insulin media until assay preparation (performed at or before day 35 of differentiation). One day prior to assay, cardiomyocytes were dissociated with 0.1% trypsin-EDTA for 5 minutes then neutralized with RPMI/B27/insulin+10% fetal bovine serum (FBS) and plated at a density of 20,000-30,000 cells per well. Cardiomyocytes were maintained in serum-containing medium overnight to facilitate cell adhesion. One hour prior to the assay, the plates were changed to Seahorse assay media (XF Base Medium supplemented with 25 mM glucose, 1 mM sodium pyruvate, and 1 mM GlutaMAX), then incubated at 37 degrees C. in a CO2-free incubator with Seahorse assay media. […] Following measurement of the oxygen consumption rate (OCR) and extracellular acidification rate (ECAR) in response to serial injections of the stress test kit compounds, final cell density was determined using a CyQUANT assay (Thermo Fisher Scientific) to account for cell loss during washes. Cardiomyocytes not used for the Seahorse assay but at a similar day of differentiation were used to create a standard curve for the CyQUANT assay to quantify absolute cell number in order to account for cell loss during washing/mixing steps. OCR values were normalized to absolute cell number determined by the CyQUANT assay. […] Baseline OCR values were calculated by averaging the first three OCR measurements (0-12 minutes) prior to injection of compounds, maximal OCR values were calculated by subtracting the average non-mitochondrial OCR values (OCR following rotenone/[…]) from the OCR values after the injection with the uncoupler FCCP, and respiratory reserve capacity values were calculated by subtracting baseline OCR values from OCR values after addition of FCCP. For the Glycolysis Stress Test, the glycolysis ECAR was calculated by subtracting the average non-glycolytic acidification values (after 2-DG) from the values after glucose administration, the glycolytic capacity was calculated by subtracting the non-glycolytic acidification ECAR values from ECAR values after addition of oligomycin, and the glycolytic reserve was calculated by subtracting the ECAR values after addition of glucose from the ECAR values after addition of oligomycin, according to the manufacturer's instructions.

[3] = Torin1 0-200 nM 4 days prior to harvest on day 22, BJRiPS, FIG. 11

CCC(=O)N1CCN(c2ccc(-n3c(=O)ccc4cnc5ccc(-c6cnc7ccccc7c6)cc5c43)cc2C(F)(F)F)CC1 [Torin1]
TNNI1 protein levels ([1]; FIG. 2B, RNA levels not increased): increase in TNNI1 protein levels | GATA4 protein expression ([1]; FIG. 5A): trend toward increased protein expression | expression of fatty acid receptor CD36 ([1]; FIG. 13C, BJRiPS-CM): trend toward increased expression | p21 protein expression ([1]; Torin1 0, 10, 50, 200 nM 7 days, FIG. 5A): dose-dependent decrease | p53 protein (total and phosphorylated) ([1]; Torin1 0, 10, 50, 200 nM 7 days, Gibco iPS-CM, FIG. 5A): dose-dependent increase | TNNI3 protein, late treatment [1, 3]: increases expression of TNNI3 | p21 protein, late treatment [1, 3]: decreases expression of p21 | TNNTI3 by western analysis ([1]; Torin1 10, 50, 200 nM 4 days, BJRiPS, FIGS. 18F-18G): significant increase in TNNTI3 | TNNI3 protein (western, densitometry) ([1]; Torin1 10, 50, 200 nM, 4 days, days 25-29, BJRiPS, FIG. 31): increased protein expression | TNNT2 and TNNI3 protein expression by western analysis ([1]; Torin1 7 days, Gibco iPS-CMs, FIG. 2B): dose-dependent increase | normalized maximal OCR ([2]; Torin1 200 nM 7 days, BJRiPS-CMs, FIG. 3B): significant increase | ECAR from non-glycolytic acidification ([2]; Torin1 200 nM 7 days, FIG. 12C): decrease in ECAR from non-glycolytic acidification | extracellular acidification rate (ECAR) ([2]; Torin1 200 nM 7 days, FIGS. 12A-12B): trend toward decreased | maximal OCR ([2]; Torin1 7 days, Gibco iPSC-derived cardiomyocytes): significantly increases the maximal OCR
